According to patent US4585866A, “Treatment of migraine with substituted tropyl benzoate derivatives” (Merrell Dow Pharmaceuticals Inc., priority 1984, dated 1986):
Like-named read-outs stand apart in the source and are kept apart here.

What was measured:
5-HT D-receptor = conditions: at the doses used clinically for the treatment of migraine; cited from earlier work
5-HT M-receptor [1] = target: T1, 5-HT M-receptor (Oryctolagus cuniculus, UniProt A0A5F9C9J3); experiment: pA2 against 5-HT in isolated rabbit heart; assay type: cell-based
T1 construct: determining their pA2 values in the isolated rabbit heart; from tissue; host or cells: isolated rabbit heart (receptor on the cardiac neurones)
T1 sequence (A0A5F9C9J3 1-494): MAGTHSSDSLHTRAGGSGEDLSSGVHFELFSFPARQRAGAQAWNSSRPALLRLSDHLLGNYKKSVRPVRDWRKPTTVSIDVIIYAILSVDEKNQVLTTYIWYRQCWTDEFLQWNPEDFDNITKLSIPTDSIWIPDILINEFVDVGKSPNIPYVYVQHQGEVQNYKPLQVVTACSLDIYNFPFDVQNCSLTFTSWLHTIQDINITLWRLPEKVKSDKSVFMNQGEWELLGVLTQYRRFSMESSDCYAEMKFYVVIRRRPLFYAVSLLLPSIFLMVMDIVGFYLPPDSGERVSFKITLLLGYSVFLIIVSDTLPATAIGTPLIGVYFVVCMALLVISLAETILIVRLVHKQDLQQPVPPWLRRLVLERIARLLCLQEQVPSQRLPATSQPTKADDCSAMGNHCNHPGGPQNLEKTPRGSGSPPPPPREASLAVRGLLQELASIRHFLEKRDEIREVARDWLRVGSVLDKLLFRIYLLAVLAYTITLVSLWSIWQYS
Procedure: (§1) The activity of the compounds against 5-HT can be assessed by determining their pA2 values in the isolated rabbit heart as described by J. R. Fozard et al, Eur. J. Pharmacol., 59, 195-210 (1979). In the method described, the molar concentration of antagonist which reduces the effects of twice the ED50 of 5-HT to that of the ED50 in the absence of antagonist is determined. The pA2 value is the negative logarithm of said molar concentrations.

[2] = system: Von Bezold-Jarisch Reflex (5-HT M-receptor); experiment: Antagonism of the Von Bezold-Jarisch reflex evoked by 5-HT in the anaesthetized rat; assay type: in vivo, rat (male Sprague-Dawley); conditions: comparison in words, i.v.
From the text: The activity of these compounds against 5-HT can be assessed in vivo by measurement of the effect of the compound on the Von Bezold-Jarisch Reflex induced by 5-HT injected intravenously into the rat (A. S. Paintal, Physiol. Rev. 53, 159-227, 1973). The transient caridac slowing arises from an increased afferent vagus activity arising from stimulation by 5-HT of sensory afferent fibres in and around the heart (see Example 3).
Antagonism of the Von Bezold-Jarisch reflex evoked by 5-HT in the anaesthetized rat was measured for tropyl 3,5-dimethoxybenzoate (A), tropyl 3,5-dimethylbenzoate (B) and tropyl 3,5-dichlorobenzoate (C) using the following method.
Male Sprague-Dawley rats weighing 250-300 g are anaesthetized with urethane, 1.25 g/kg injected intraperitoneally and set up for recording blood pressure and heart rate as described in J. R. Fozard et al, J. Cardiovas. Pharmacol. 2, 229-245 (1980). A submaximal dose of 5-HT ([…]) is given repeatedly into the cannulated jugular vein and changes in heart rate are quantified. Antagonists are given intravenously and the doses required to just inhibit the response to 5-HT (threshold dose) or to inhibit the response to 5-HT by 50% (ED50) are determined.

LD50 in the mouse = assay type: in vivo; conditions: in vivo, mouse
mouse = experiment: LD50 in the mouse; assay type: in vivo; conditions: as shown by LD50 values in the mouse and rat
LD50 in the rat = conditions: in vivo, iv
[3] = target: T2, rabbit heart (5-HT M receptor) (Oryctolagus cuniculus, UniProt A0A5F9C9J3); experiment: Inhibition of standard response to 5-HT, rabbit heart; assay type: cell-based
T2 construct: RABBIT HEART; from tissue; host or cells: rabbit heart
T2 sequence (A0A5F9C9J3 1-494): T1 sequence (A0A5F9C9J3 1-494)
Procedure: as §1
(§2) A selection of classical in vitro pharmacological test preparations (rat uterus, rat fundus, guinea-pig ileum, guinea-pig taenia caeci) were set up according to well-established procedures (see "Pharmacological Experiments on Isolated Preparations" Staff of the Department of Pharmacology, University of Edinburgh, Livingstone, Edinburgh 1970). Various spasmogens were used to elicit contraction of these tissues though mechanisms other than the 5-HT "M" receptor. The concentrations of tropyl 3,5-dimethoxybenzoate (A), tropyl 3,5-dimethylbenzoate (B) and tropyl 3,5-dichlorobenzoate (C) which reduced the effects of a submaximal dose of agonist by 50% were determined (IC50). The results are set forth in Table VI below in which the compounds are identified by the reference letters used above.

rat uterus [4] = experiment: Inhibition of standard response to 5-HT, rat uterus; assay type: cell-based; conditions: agonist 5-HT, read-out: Concentration to inhibit standard response to stimulants by 50% (IC50)
From the text: as §2

rat uterus [5] = experiment: Inhibition of standard response to oxytocin, rat uterus; assay type: cell-based; conditions: agonist oxytocin, read-out: Concentration to inhibit standard response to stimulants by 50% (IC50)
From the text: as §2

rat fundus [6] = experiment: Inhibition of standard response to 5-HT, rat fundus; assay type: cell-based; conditions: agonist 5-HT, read-out: Concentration to inhibit standard response to stimulants by 50% (IC50)
From the text: as §2

rat fundus [7] = experiment: Inhibition of standard response to acetylcholine, rat fundus; assay type: cell-based; conditions: agonist acetylcholine, read-out: Concentration to inhibit standard response to stimulants by 50% (IC50)
From the text: as §2

guinea-pig ileum [8] = experiment: Inhibition of standard response to acetylcholine, guinea-pig ileum; assay type: cell-based; conditions: Cavia porcellus, agonist acetylcholine, read-out: Concentration to inhibit standard response to stimulants by 50% (IC50)
From the text: as §2

guinea-pig ileum [9] = experiment: Inhibition of standard response to histamine, guinea-pig ileum; assay type: cell-based; conditions: Cavia porcellus, agonist histamine, read-out: Concentration to inhibit standard response to stimulants by 50% (IC50)
From the text: as §2

guinea-pig taenia caeci = experiment: Inhibition of standard response to calcium, guinea-pig taenia caeci; assay type: cell-based; conditions: Cavia porcellus; guinea-pig taenia caeci in potassium-depolarized Tyrode solution, agonist calcium; read-out: Concentration to inhibit standard response to stimulants by 50% (IC50)
From the text: as §2
*In potassiumdepolarized Tyrode solution

[10] = system: migraine or cluster headaches; experiment: Pilot study of intravenous tropyl 3,5-dichlorobenzoate in patients with migraine or cluster headaches; assay type: in vivo
From the text: Pilot Study of Tolerance To Intravenous Tropyl 3,5-Dichlorobenzoate in Patients With Migraine or Cluster Headaches
This study was designed to evaluate tolerance and, if possible, efficacy of intravenous tropyl 3,5-dichlorobenzoate in patients with migraine or cluster headaches.
Eight patients (4 males), aged 27-47 with known headache disorders of 5-27 years duration (see Table VII) took part in the study but Patients Nos. 2 and 4 had cluster not migraine headaches and the cause of headaches in Patient No. 6 was unknown.
Tropyl 3,5-dichlorobenzoate was provided as a sterile solution, 1 mg/ml; the desired dose to be diluted in 10 ml normal saline for intravenous infusion over a 2 minute period. No other therapy was taken for at least 24 hours before treatment or during the course of therapy.

5-HT M-receptor [11] = target: T1, 5-HT M-receptor; conditions: reported by J. R. Fozard et al, Eur. J. Pharmacol. 1979 / 1978; cited from earlier work
[12] = isolated rabbit heart, negative log of molar concentration of antagonist reducing effect of twice the ED50 of 5-HT to that of the ED50, read-out: pA2 5-HT (converted)
[13] = Patient 6, i.v., after 4 mg dose
[14] = Patient 8, i.v., first day of 9 mg

## CC[C@@H](CO)NC(=O)[C@@H]1C=C2c3cccc4c3c(cn4C)C[C@H]2N(C)C1 [methysergide]
5-HT D-receptor
  5-HT D-receptor antagonism: 5-HT D-receptor antagonists

## CN(C)CCC=C1c2ccccc2CCc2ccccc21 [amitriptyline]
5-HT D-receptor
  5-HT D-receptor antagonism: 5-HT D-receptor antagonists

## O=C(O[C@H]1C[C@H]2CC[C@@H](C1)N2)c1cc(Cl)cc(Cl)c1 [nortropyl 3,5-dichlorobenzoate, reference compound]
5-HT M-receptor [1]; [12]
  Kb: 0.0158 µM

## Cc1ccc(C(=O)O[C@H]2C[C@H]3CC[C@@H](C2)N3C)cc1 [tropyl 4-methylbenzoate, reference compound]
5-HT M-receptor [1]; [12]
  Kb: 0.0158 µM

## Cc1cccc(C(=O)O[C@H]2C[C@H]3CC[C@@H](C2)N3C)c1 [tropyl 3-methylbenzoate]
5-HT M-receptor [1]; [12]
  Kb: 0.00631 µM

## COc1ccc(C(=O)O[C@H]2C[C@H]3CC[C@@H](C2)N3C)cc1OC [tropyl 3,4-dimethoxybenzoate, reference compound]
5-HT M-receptor [1]; [12]
  Kb: 0.0631 µM

## CC(C)NC[C@H](O)COc1cccc2ccccc12 (racemic) [propanolol]
5-HT D-receptor
  5-HT D-receptor antagonism: 5-HT D-receptor antagonists

## CN1[C@@H]2CC[C@H]1C[C@@H](OC(=O)c1ccc(Cl)cc1)C2 [tropyl 4-chlorobenzoate, reference compound]
5-HT M-receptor [1]; [12]
  Kb: 0.1 µM

## CN1[C@@H]2CC[C@H]1C[C@@H](OC(=O)c1cc(Cl)cc(Cl)c1)C2 [tropyl 3,5-dichlorobenzoate]
5-HT M-receptor [1]
  Kb: 0.000501 µM
[2]
  potency relative to metoclopramide: many times more potent than metoclopramide
LD50 in the mouse; ip
  LD50: 32 mg/kg
LD50 in the mouse; iv
  LD50: 24 mg/kg
LD50 in the mouse; oral
  LD50: 90 mg/kg
mouse
  toxicity in words: relatively non-toxic
LD50 in the rat
  LD50: 14 mg/kg
[3]
  IC50: 0.00082 µM
Rat uterus [4]
  IC50: 25.4 µM
Rat uterus [5]
  IC50: > 50.9 µM
Rat fundus [6]
  IC50: > 50.9 µM
Rat fundus [7]
  IC50: 12.4 µM
guinea-pig ileum [8]
  IC50: 8.05 µM
guinea-pig ileum [9]
  IC50: 3.68 µM
guinea-pig taenia caeci
  IC50: 28.6 µM
[10]; Patient 1, i.v. 1 mg, then 1 hour later, 2 mg
  response: no effect on headache or nausea
[10]; Patient 2 (cluster headache), i.v. 1 mg
  response: no effect
[10]; Patient 3, i.v. 3 mg
  response: no effect
[10]; Patient 4 (cluster headache), i.v. 3 mg
  response: no effect
[10]; Patient 5, i.v. 5 mg
  response: no effect
[10]; Patient 6, i.v.
  period over which reduction in headache intensity lasted: 21/2
[10]; Patient 6, i.v. 3 mg single doses
  headache reduction: slight reduction in their bilateral headache
[10]; Patient 6, i.v. 4 mg bid
  headache reduction: further amelioration
[10]; Patient 6, i.v. 5 mg bid × 2 days, then 6 mg bid × 11 days
  response with increased doses: no greater effect
[10]; [13]
  duration of reduction of pain intensity: 4 to 8 h
  onset of reduction of pain intensity: ≤ 30 min
[10]; Patient 6, i.v., within 30 minutes after 4 mg dose
  reduction of pain intensity: 70-80%
[10]; Patient 7, i.v. 3 mg × 1 day, 5 mg × 2 days, 7 mg × 1 day
  response: no effect
[10]; Patient 8, after stopping i.v. therapy
  return of headache to pretreatment intensity after stopping therapy: 6 to 7 days
[10]; Patient 8, i.v. 3 mg
  reduction of pain: about 30%
[10]; Patient 8, i.v. 6 mg × 1 day, 7 mg × 2 days, 9 mg × 1 day
  response during increasing doses: maintained during increasing doses
[10]; [14]
  episode of pain, nausea, vomiting and photophobia: single episode of pain
  symptom return during treatment: single episode of symptom return
[10]; Patient 8, i.v., first dose of 3 mg
  symptoms (headache, nausea, vomiting, vertigo, photophobia): decrease in all symptoms
[10]; i.v., initial dose 1 mg
  tolerance of initial dose: well tolerated
[10]; i.v., over 18 days
  cumulative dose well tolerated: ≤ 177 mg
[10]; i.v., patients
  dose administered without any signs of intolerance, daily: ≤ 14 mg/day
[10]; i.v., repeated doses, patients with headaches
  dose well tolerated, repeated doses: up to 7 mg b.i.d.
[10]; repeated i.v. doses, marked diminution of headache and associated symptoms, of three patients
  number of patients responding to repeated doses: two of the three patients
[10]; repeated i.v. doses, two of the three patients (Patients Nos. 6 and 8)
  headache and associated symptoms: marked diminution of headache and associated symptoms
[10]; some patients, i.v. doses of 3 mg or greater
  pain intensity and associated symptoms: pain intensity and associated symptoms were ameliorated

## CN1[C@@H]2CC[C@H]1C[C@@H](OC(=O)c1cccc(Cl)c1)C2 [tropyl 3-chlorobenzoate]
5-HT M-receptor [1]; [12]
  Kb: 0.00251 µM

## COc1cc(C(=O)O[C@H]2C[C@H]3CC[C@@H](C2)N3C)cc(OC)c1OC [tropyl 3,4,5-trimethoxybenzoate]
5-HT M-receptor [1]; [12]
  Kb: 0.00316 µM

## CN(C)CCCN1c2ccccc2Sc2ccc(Cl)cc21 [chlorpromazine]
5-HT D-receptor
  5-HT D-receptor antagonism: 5-HT D-receptor antagonists

## CN1[C@@H]2CC[C@H]1C[C@@H](OC(=O)c1ccccc1)C2 [tropylbenzoate, reference compound]
5-HT M-receptor [1]; [12]
  Kb: 0.0631 µM
5-HT M-receptor [11]
  pA2 value (5-HT): 7.12

## COc1cc(OC)cc(C(=O)O[C@H]2C[C@H]3CC[C@@H](C2)N3C)c1 [tropyl 3,5-dimethoxybenzoate]
5-HT M-receptor [1]; [12]
  Kb: 0.00398 µM
[2]
  potency relative to metoclopramide: many times more potent than metoclopramide
LD50 in the mouse; ip
  LD50: 28 mg/kg
LD50 in the mouse; iv
  LD50: 29 mg/kg
LD50 in the mouse; sc
  LD50: 17 mg/kg
LD50 in the mouse; oral
  LD50: 160 mg/kg
mouse
  toxicity in words: relatively non-toxic
LD50 in the rat
  LD50: 13 mg/kg
[3]; rabbit heart, agonist 5-HT, read-out: Concentration to inhibit standard response to stimulants by 50% (IC50)
  IC50: 0.0094 µM
Rat uterus [4]
  IC50: > 52.5 µM
Rat uterus [5]
  IC50: > 52.5 µM
Rat fundus [6]
  IC50: 40 µM
Rat fundus [7]
  IC50: 13.1 µM
guinea-pig ileum [8]
  IC50: 9.56 µM
guinea-pig ileum [9]
  IC50: 6.61 µM
guinea-pig taenia caeci
  IC50: 36.1 µM

## COC(=O)C1C2CCC(CC1OC(=O)c1ccccc1)N2 (single isomer, unassigned) [nor(-) cocaine]
5-HT M-receptor [11]
  pA2 value (5-HT): 7.7
